In patent publication US9828379B2 (priority 2013, dated 2017):

Columns and labels:
[1] = biological target: T1, FAAH (Mus musculus, UniProt O08914); test: biochemical; details: in vitro competitive ABPP
T1 sequence (O08914 1-579): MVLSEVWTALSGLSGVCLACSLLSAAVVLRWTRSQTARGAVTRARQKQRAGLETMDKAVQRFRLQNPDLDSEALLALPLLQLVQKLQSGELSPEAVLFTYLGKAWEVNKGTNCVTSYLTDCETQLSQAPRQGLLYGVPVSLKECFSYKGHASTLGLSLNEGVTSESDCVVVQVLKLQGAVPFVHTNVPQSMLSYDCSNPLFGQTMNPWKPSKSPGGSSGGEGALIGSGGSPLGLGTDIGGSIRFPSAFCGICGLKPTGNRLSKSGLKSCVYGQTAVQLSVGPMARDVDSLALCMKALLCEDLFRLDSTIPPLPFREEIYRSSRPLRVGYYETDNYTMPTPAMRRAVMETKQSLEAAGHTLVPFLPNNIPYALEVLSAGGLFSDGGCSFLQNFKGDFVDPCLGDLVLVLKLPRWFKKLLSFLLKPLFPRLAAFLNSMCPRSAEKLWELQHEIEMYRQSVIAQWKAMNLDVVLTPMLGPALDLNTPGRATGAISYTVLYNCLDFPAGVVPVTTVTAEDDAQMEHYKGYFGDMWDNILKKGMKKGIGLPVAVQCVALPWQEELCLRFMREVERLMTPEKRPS

[2] = biological target: T2, MAGL (Mus musculus, UniProt O35678); test: biochemical; details: mouse; in vitro competitive ABPP; read-out: Mouse (IC50 value, nM) MAGL
T2 sequence (O35678 1-303): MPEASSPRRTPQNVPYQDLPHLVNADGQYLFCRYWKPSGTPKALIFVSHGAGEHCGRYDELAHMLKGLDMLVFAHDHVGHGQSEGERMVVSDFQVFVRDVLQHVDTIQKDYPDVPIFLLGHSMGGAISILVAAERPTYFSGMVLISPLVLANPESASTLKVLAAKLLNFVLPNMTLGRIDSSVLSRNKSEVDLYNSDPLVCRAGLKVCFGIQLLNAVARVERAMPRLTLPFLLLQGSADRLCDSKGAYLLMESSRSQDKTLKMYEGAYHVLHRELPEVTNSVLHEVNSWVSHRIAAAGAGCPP

[3] = biological target: T3, ABHD6 (Mus musculus, UniProt Q8R2Y0); test: biochemical; details: in vitro competitive ABPP
T3 sequence (Q8R2Y0 1-336): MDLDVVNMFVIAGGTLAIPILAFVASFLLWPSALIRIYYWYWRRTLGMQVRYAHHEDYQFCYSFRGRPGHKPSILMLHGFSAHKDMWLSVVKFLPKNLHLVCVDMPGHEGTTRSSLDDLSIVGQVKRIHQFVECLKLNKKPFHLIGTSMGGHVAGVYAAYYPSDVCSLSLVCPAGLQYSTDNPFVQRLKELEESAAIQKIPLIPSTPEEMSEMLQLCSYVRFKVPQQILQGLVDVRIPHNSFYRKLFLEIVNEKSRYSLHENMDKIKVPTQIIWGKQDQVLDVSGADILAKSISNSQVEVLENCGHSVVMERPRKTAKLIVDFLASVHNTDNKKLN

[4] = biological target: T1, FAAH; test: In vitro competitive activity-based protein profiling (Table 2, % inhibition at 1 μM); assay type: biochemical; details: read-out: % Inhibition at 1 μM FAAH
[5] = biological target: T3, ABHD6; test: as above; assay type: biochemical; details: read-out: % Inhibition at 1 μM ABHD6
[6] = biological target: T2, MAGL; test: as above; assay type: biochemical; details: read-out: % Inhibition at 1 μM MAGL
Method: After 30 min, FP—Rh (1.0 μL, 50 μM in DMSO) was added and the mixture was incubated for another 30 min at 37° C. Reactions were quenched with SDS loading buffer (50 μL-4×) and run on SDS-PAGE.
Cell lysates were diluted with mock proteomes for use in competitive ABPP experiments.

SMILES	IC50 [1]	IC50 [2]	IC50 [3]	inhibition at 1 µM [4]	inhibition at 1 µM [5]	inhibition at 1 µM [6]
O=C(OC(C(F)(F)F)C(F)(F)F)N1CC2CN(Cc3ccccc3-c3ccccc3)CC2C1 (stereo not drawn) [Example 12, 1,1,1,3,3,3-Hexafluoropropan-2-yl 5-[(2-phenylphenyl)methyl]-octahydropyrrolo[3,4-c]pyrrole-2-carboxylate]	1000 to 10000 nM	< 100 nM	> 10000 nM	25 to 75%	< 25%	> 75%
CCn1ncc(CN2CC3CN(C(=O)OC(C(F)(F)F)C(F)(F)F)CC3C2)c1C(=O)NCC1CCOCC1 (stereo not drawn) [Example 181, 1,1,1,3,3,3-hexafluoropropan-2-yl 5-((1-ethyl-5-(((tetrahydro-2H-pyran-4-yl)methyl)carbamoyl)-1H-pyrazol-4-yl)methyl)hexahydropyrrolo[3,4-c]pyrrole-2(1H)-carboxylate]	> 10000 nM	< 100 nM	100 to 1000 nM	< 25%	25 to 75%	> 75%
O=C(OC(C(F)(F)F)C(F)(F)F)N1CC2CN(Cc3ccc(Cl)cc3N3CCCC3)CC2C1 (stereo not drawn) [Example 19, 1,1,1,3,3,3-Hexafluoropropan-2-yl 5-[[4-chloro-2-(pyrrolidin-1-yl)phenyl]methyl]-octahydropyrrolo[3,4-c]pyrrole-2-carboxylate]	1000 to 10000 nM	< 100 nM	1000 to 10000 nM	25 to 75%	< 25%	> 75%
O=C(OC(C(F)(F)F)C(F)(F)F)N1CC2CN(Cc3ccc(N4CCOCC4)cc3Cl)CC2C1 (stereo not drawn) [Example 2, 1,1,1,3,3,3-Hexafluoropropan-2-yl 5-(2-chloro-4-morpholinobenzyl)hexahydropyrrolo[3,4-c]pyrrole-2(1H)-carboxylate]	100 to 1000 nM	< 100 nM	1000 to 10000 nM	25 to 75%	< 25%	> 75%
Cc1c(CN2CC3CN(C(=O)OC(C(F)(F)F)C(F)(F)F)CC3C2)cccc1N1CCN(C)CC1 (stereo not drawn) [Example 154, 1,1,1,3,3,3-hexafluoropropan-2-yl 5-[[2-methyl-3-(4-methylpiperazin-1-yl)phenyl]methyl]-octahydropyrrolo[3,4-c]pyrrole-2-carboxylate]	> 10000 nM	100 to 1000 nM	1000 to 10000 nM	< 25%	< 25%	> 75%
CC(=O)NC1CCN(c2ccc(Cl)cc2CN2CC3CN(C(=O)OC(C(F)(F)F)C(F)(F)F)CC3C2)CC1 (stereo not drawn) [Example 5, 1,1,1,3,3,3-Hexafluoropropan-2-yl 5-(2-(4-acetamidopiperidin-1-yl)-5-chlorobenzyl)hexahydropyrrolo[3,4-c]pyrrole-2(1H)-carboxylate]	1000 to 10000 nM	100 to 1000 nM	1000 to 10000 nM			
O=C(OC(C(F)(F)F)C(F)(F)F)N1CC2CN(Cc3ccc(C(=O)N4CCCC4)c(OC(F)(F)F)c3)CC2C1 (stereo not drawn) [Example 193, 1,1,1,3,3,3-hexafluoropropan-2-yl 5-(4-(pyrrolidine-1-carbonyl)-3-(trifluoromethoxy)benzyl)hexahydropyrrolo[3,4-c]pyrrole-2(1H)-carboxylate]	> 10000 nM	100 to 1000 nM	1000 to 10000 nM	< 25%	25 to 75%	> 75%
Cc1cccc(-c2cc(CN3CC4CN(C(=O)OC(C(F)(F)F)C(F)(F)F)CC4C3)n(C)n2)c1 (stereo not drawn) [Example 196, 1,1,1,3,3,3-hexafluoropropan-2-yl 5-((1-methyl-3-(m-tolyl)-1H-pyrazol-5-yl)methyl)hexahydropyrrolo[3,4-c]pyrrole-2(1H)-carboxylate]	1000 to 10000 nM	< 100 nM	1000 to 10000 nM	< 25%	< 25%	> 75%
O=C(ON1C(=O)CCC1=O)N1CC2CN(Cc3ccccc3-c3ccccc3)CC2C1 (stereo not drawn) [Example 87, 2,5-Dioxopyrrolidin-1-yl-5-[(2-phenylphenyl)methyl]-octahydropyrrolo[3,4-c]pyrrole-2-carboxylate]	100 to 1000 nM	100 to 1000 nM	1000 to 10000 nM	25 to 75%	25 to 75%	> 75%
Cn1cc(CN2CC3CN(C(=O)ON4C(=O)CCC4=O)CC3C2)c(-c2ccccc2)n1 (stereo not drawn) [Example 114, 2,5-Dioxopyrrolidin-1-yl 5-((1-methyl-3-phenyl-1H-pyrazol-4-yl)methyl)hexahydropyrrolo[3,4-c]pyrrole-2(1H)-carboxylate]	> 10000 nM	100 to 1000 nM	1000 to 10000 nM			
CC1COCCN1c1ccc(CN2CC3CN(C(=O)OC(C(F)(F)F)C(F)(F)F)CC3C2)c(F)c1 (stereo not drawn) [Example 25, 1,1,1,3,3,3-Hexafluoropropan-2-yl 5-[[2-fluoro-4-(3-methylmorpholin-4-yl)phenyl]methyl]-octahydropyrrolo[3,4-c]pyrrole-2-carboxylate]	1000 to 10000 nM	< 100 nM	1000 to 10000 nM	25 to 75%	25 to 75%	> 75%
CCn1ncc(CN2CC3CN(C(=O)OC(C(F)(F)F)C(F)(F)F)CC3C2)c1C(=O)N1CCOCC1 (stereo not drawn) [Example 73, 1,1,1,3,3,3-Hexafluoropropan-2-yl 5-((1-ethyl-5-(morpholine-4-carbonyl)-1H-pyrazol-4-yl)methyl)hexahydropyrrolo[3,4-c]pyrrole-2(1H)-carboxylate]	> 10000 nM	100 to 1000 nM	> 10000 nM			
CS(=O)(=O)NC1CCN(c2ccc(Cl)cc2CN2CC3CN(C(=O)OC(C(F)(F)F)C(F)(F)F)CC3C2)CC1 (stereo not drawn) [Example 6, 1,1,1,3,3,3-Hexafluoropropan-2-yl 5-(5-chloro-2-(4-(methylsulfonamido)piperidin-1-yl)benzyl)hexahydropyrrolo[3,4-c]pyrrole-2(1H)-carboxylate]	1000 to 10000 nM	100 to 1000 nM	1000 to 10000 nM			
O=C(ON1C(=O)CCC1=O)N1CC2CN(Cc3ccc(N4CCOCC4)cc3F)CC2C1 (stereo not drawn) [Example 79, 2,5-Dioxopyrrolidin-1-yl 5-(2-fluoro-4-morpholinobenzyl)hexahydropyrrolo[3,4-c]pyrrole-2(1H)-carboxylate]	1000 to 10000 nM	1000 to 10000 nM	1000 to 10000 nM			
CC(=O)NC1CN(c2ccc(Cl)cc2CN2CC3CN(C(=O)OC(C(F)(F)F)C(F)(F)F)CC3C2)C1 (stereo not drawn) [Example 7, 1,1,1,3,3,3-Hexafluoropropan-2-yl 5-(2-(3-acetamidoazetidin-1-yl)-5-chlorobenzyl)hexahydropyrrolo[3,4-c]pyrrole-2(1H)-carboxylate]	1000 to 10000 nM	< 100 nM	1000 to 10000 nM			
CC1COCCN1c1cc(Cl)ccc1CN1CC2CN(C(=O)ON3C(=O)CCC3=O)CC2C1 (stereo not drawn) [Example 95, 2,5-Dioxopyrrolidin-1-yl 5-[[4-chloro-2-(3-methylmorpholin-4-yl)phenyl]methyl]-octahydropyrrolo[3,4-c]pyrrole-2-carboxylate]				< 25%	< 25%	25 to 75%
Cc1c(CN2CC3CN(C(=O)ON4C(=O)CCC4=O)CC3C2)cccc1N1CCN(S(C)(=O)=O)CC1 (stereo not drawn) [Example 141, 2,5-dioxopyrrolidin-1-yl 5-[[3-(4-methanesulfonylpiperazin-1-yl)-2-methylphenyl]methyl]-octahydropyrrolo[3,4-c]pyrrole-2-carboxylate]				< 25%	< 25%	25 to 75%
